Results reported in publication PMC3853197 (PLoS ONE, 2013).
Where two headings read alike, the source gives them in different places.

Tests used:
F. graminearum PH-1 = type: cell-based, Fusarium graminearum
[1] = test system: F. graminearum conidia and hyphae; type: cell-based, Fusarium graminearum

| Substance | IC100: amount of protein required to inhibit F. graminearum conidial germination completely (F. graminearum PH-1) [µM] | antifungal activity (F. graminearum PH-1; 96 µM) | antifungal activity compared with TMR-GMA4-C (F. graminearum PH-1; 16 h) | binding to the surface of fungal hyphae [1] | entry into fungal cells [1] | antifungal activity of labeled compared with untagged/unlabeled protein or peptide (F. graminearum PH-1) | antifungal activity (F. graminearum PH-1; 24 µM) |
| --- | --- | --- | --- | --- | --- | --- | --- |
| GRCRGFRRRCFCTTHC [GMA4-C] | < 6 | – | – | – | – | – | – |
| TAM-GRCAAAARRCFCTTHC [TMR-GMA4-CM] | >96 | no antifungal activity | significantly lower antifungal activity | failed to bind | no indication of entry into fungal cells | – | – |
| RTCENLADKYRGPCFSGCDTHCTTKENAVSGRCRDDFRCWCTKRC [MsDef1, reference compound] | >6 | – | – | – | – | – | – |
| TAM-GRCRGFRRRCFCTTHC [TMR-GMA4-C] | 48 | – | – | – | entered the cytoplasm | considerably less antifungal activity | significant growth inhibition |
